#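 GI50: concentration for 50% inhibition of growth. At the TGI there is no net growth.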
# How the values were obtained:
# Assay in all cases: DTP human tumour cell line panel, 384-well format
# NCI/ADR-RES ovarian = test system: NCI/ADR-RES ovarian
# MDA-MB-231 breast = test system: MDA-MB-231 breast
# ACHN renal = test system: ACHN renal
# EKVX NSCLC = test system: EKVX NSCLC
# SK-MEL-2 melanoma = test system: SK-MEL-2 melanoma
# UO-31 renal = test system: UO-31 renal
# HCT-116 colon = test system: HCT-116 colon
# UACC-62 melanoma = test system: UACC-62 melanoma
# RPMI-8226 leukemia = test system: RPMI-8226 leukemia
# LOX IMVI melanoma = test system: LOX IMVI melanoma
# K-562 leukemia = test system: K-562 leukemia
# NCI-H322M lung = test system: NCI-H322M lung
# HOP-62 NSCLC = test system: HOP-62 NSCLC
# SN12C renal = test system: SN12C renal
# MDA-MB-468 breast = test system: MDA-MB-468 breast
# TK-10 renal = test system: TK-10 renal
# UACC-257 melanoma = test system: UACC-257 melanoma
# MOLT-4 leukemia = test system: MOLT-4 leukemia
# 786-0 renal = test system: 786-0 renal
# HS 578T breast = test system: HS 578T breast
# NCI-H226 lung = test system: NCI-H226 lung
# NCI-H460 NSCLC = test system: NCI-H460 NSCLC
# HCT-15 colon = test system: HCT-15 colon
# COLO 205 colon = test system: COLO 205 colon
# MDA-MB-435 melanoma = test system: MDA-MB-435 melanoma
# OVCAR-3 ovarian = test system: OVCAR-3 ovarian
# SK-MEL-28 melanoma = test system: SK-MEL-28 melanoma
# KM12 colon = test system: KM12 colon
# CCRF-CEM leukemia = test system: CCRF-CEM leukemia
# SW-620 colon = test system: SW-620 colon
# T-47D breast = test system: T-47D breast
# SF-295 CNS = test system: SF-295 CNS
# SNB-75 CNS = test system: SNB-75 CNS
# HCC-2998 colon = test system: HCC-2998 colon
# SF-268 CNS = test system: SF-268 CNS
# SK-OV-3 ovarian = test system: SK-OV-3 ovarian
# OVCAR-5 ovarian = test system: OVCAR-5 ovarian
# OVCAR-8 ovarian = test system: OVCAR-8 ovarian
# SNB-19 CNS = test system: SNB-19 CNS
# RXF 393 renal = test system: RXF 393 renal
# HOP-92 NSCLC = test system: HOP-92 NSCLC
# A498 renal = test system: A498 renal
# PC-3 prostate = test system: PC-3 prostate
# MCF7 breast = test system: MCF7 breast
# OVCAR-4 ovarian = test system: OVCAR-4 ovarian
# M14 melanoma = test system: M14 melanoma
# SK-MEL-5 melanoma = test system: SK-MEL-5 melanoma
# CAKI-1 renal = test system: CAKI-1 renal
# HL-60(TB) leukemia = test system: HL-60(TB) leukemia
# BT-549 breast = test system: BT-549 breast
# NCI-H522 lung = test system: NCI-H522 lung
# SF-539 CNS = test system: SF-539 CNS
# HT29 colon = test system: HT29 colon
# MALME-3M melanoma = test system: MALME-3M melanoma
# A549 NSCLC = test system: A549 NSCLC
# DU-145 prostate = test system: DU-145 prostate
# NCI-H23 lung = test system: NCI-H23 lung
# U251 glioblastoma = test system: U251 glioblastoma
# IGROV1 ovarian = test system: IGROV1 ovarian
structure (smiles),measurement,setting,value
Nc1ncnc2c1c(-c1cccc(OCc3ccccc3)c1)cn2C1CC(CN2CCCC2)C1 (stereo not drawn),GI50,NCI/ADR-RES ovarian,2290 nM
same,TGI,NCI/ADR-RES ovarian,6640 nM
same,GI50,MDA-MB-231 breast,2050 nM
same,TGI,MDA-MB-231 breast,4560 nM
same,GI50,ACHN renal,2040 nM
same,TGI,ACHN renal,4450 nM
same,GI50,EKVX NSCLC,1360 nM
same,TGI,EKVX NSCLC,3740 nM
same,GI50,SK-MEL-2 melanoma,1060 nM
same,TGI,SK-MEL-2 melanoma,2260 nM
same,GI50,UO-31 renal,1520 nM
same,TGI,UO-31 renal,2880 nM
same,GI50,HCT-116 colon,1560 nM
same,TGI,HCT-116 colon,2990 nM
same,GI50,UACC-62 melanoma,1690 nM
same,TGI,UACC-62 melanoma,3070 nM
same,GI50,RPMI-8226 leukemia,1720 nM
same,TGI,RPMI-8226 leukemia,3110 nM
same,GI50,LOX IMVI melanoma,1670 nM
same,TGI,LOX IMVI melanoma,3050 nM
same,GI50,K-562 leukemia,1560 nM
same,TGI,K-562 leukemia,2950 nM
same,GI50,NCI-H322M lung,1860 nM
same,TGI,NCI-H322M lung,4940 nM
same,GI50,HOP-62 NSCLC,1870 nM
same,TGI,HOP-62 NSCLC,3490 nM
same,GI50,SN12C renal,1770 nM
same,TGI,SN12C renal,3420 nM
same,GI50,MDA-MB-468 breast,1520 nM
same,TGI,MDA-MB-468 breast,2970 nM
same,GI50,TK-10 renal,1600 nM
same,TGI,TK-10 renal,3170 nM
same,GI50,UACC-257 melanoma,1480 nM
same,TGI,UACC-257 melanoma,2810 nM
same,GI50,MOLT-4 leukemia,1780 nM
same,TGI,MOLT-4 leukemia,3170 nM
same,GI50,786-0 renal,1690 nM
same,TGI,786-0 renal,3080 nM
same,GI50,HS 578T breast,1580 nM
same,TGI,HS 578T breast,2950 nM
same,GI50,NCI-H226 lung,1470 nM
same,TGI,NCI-H226 lung,4310 nM
same,GI50,NCI-H460 NSCLC,1320 nM
same,TGI,NCI-H460 NSCLC,2750 nM
same,GI50,HCT-15 colon,1570 nM
same,TGI,HCT-15 colon,3280 nM
same,GI50,COLO 205 colon,442 nM
same,TGI,COLO 205 colon,1640 nM
same,GI50,MDA-MB-435 melanoma,1490 nM
same,TGI,MDA-MB-435 melanoma,2840 nM
same,GI50,OVCAR-3 ovarian,1740 nM
same,TGI,OVCAR-3 ovarian,3430 nM
same,GI50,SK-MEL-28 melanoma,1570 nM
same,TGI,SK-MEL-28 melanoma,2920 nM
same,GI50,KM12 colon,1910 nM
same,TGI,KM12 colon,4160 nM
same,GI50,CCRF-CEM leukemia,1850 nM
same,TGI,CCRF-CEM leukemia,3260 nM
same,GI50,SW-620 colon,1410 nM
same,TGI,SW-620 colon,2960 nM
same,GI50,T-47D breast,1540 nM
same,TGI,T-47D breast,3040 nM
same,GI50,SF-295 CNS,1760 nM
same,TGI,SF-295 CNS,3220 nM
same,GI50,SNB-75 CNS,1900 nM
same,TGI,SNB-75 CNS,3340 nM
same,GI50,HCC-2998 colon,1290 nM
same,TGI,HCC-2998 colon,2630 nM
same,GI50,SF-268 CNS,1760 nM
same,TGI,SF-268 CNS,3190 nM
same,GI50,SK-OV-3 ovarian,1740 nM
same,TGI,SK-OV-3 ovarian,3290 nM
same,GI50,OVCAR-5 ovarian,1520 nM
same,TGI,OVCAR-5 ovarian,3810 nM
same,GI50,OVCAR-8 ovarian,1790 nM
same,TGI,OVCAR-8 ovarian,3510 nM
same,GI50,SNB-19 CNS,3000 nM
same,TGI,SNB-19 CNS,8690 nM
same,GI50,RXF 393 renal,1480 nM
same,TGI,RXF 393 renal,2830 nM
same,GI50,HOP-92 NSCLC,1460 nM
same,TGI,HOP-92 NSCLC,2820 nM
same,GI50,A498 renal,1730 nM
same,TGI,A498 renal,3300 nM
same,GI50,PC-3 prostate,1780 nM
same,TGI,PC-3 prostate,3510 nM
same,GI50,MCF7 breast,353 nM
same,TGI,MCF7 breast,1690 nM
same,GI50,OVCAR-4 ovarian,2030 nM
same,TGI,OVCAR-4 ovarian,5180 nM
same,GI50,M14 melanoma,1400 nM
same,TGI,M14 melanoma,2720 nM
same,GI50,SK-MEL-5 melanoma,1200 nM
same,TGI,SK-MEL-5 melanoma,2450 nM
same,GI50,CAKI-1 renal,1660 nM
same,TGI,CAKI-1 renal,3220 nM
same,GI50,HL-60(TB) leukemia,324 nM
same,TGI,HL-60(TB) leukemia,1050 nM
same,GI50,BT-549 breast,1550 nM
same,TGI,BT-549 breast,2980 nM
same,GI50,NCI-H522 lung,1900 nM
same,TGI,NCI-H522 lung,3500 nM
same,GI50,SF-539 CNS,1800 nM
same,TGI,SF-539 CNS,3210 nM
same,GI50,HT29 colon,769 nM
same,TGI,HT29 colon,2060 nM
same,GI50,MALME-3M melanoma,1250 nM
same,TGI,MALME-3M melanoma,2520 nM
same,GI50,A549 NSCLC,1670 nM
same,TGI,A549 NSCLC,3410 nM
same,GI50,DU-145 prostate,3020 nM
same,TGI,DU-145 prostate,11900 nM
same,GI50,NCI-H23 lung,1380 nM
same,TGI,NCI-H23 lung,3560 nM
same,GI50,U251 glioblastoma,1890 nM
same,TGI,U251 glioblastoma,3380 nM
same,GI50,IGROV1 ovarian,3460 nM
same,TGI,IGROV1 ovarian,12300 nM
